From patent US11253497B2, “Use of derivatives of polyunsaturated fatty acids as medicaments” (Lipopharma Therapeutics, S.L., priority 2009, dated 2022)

Key:
[1] = tested on: breast cancer cells MDA-MB-231; assay: Growth of breast cancer cells MDA-MB-231; assay type: cell-based; conditions: 72 hours of incubation
Method in brief: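 Cell counts taken with compound, mean of three independent experiments. Applies to MDA-MB-231.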

[2] = tested on: apolipoprotein AI (apoA-I); assay: Levels of apoA-I in SHR rats (RT-PCR); assay type: in vivo, rat; conditions: 200 mg/kg day p.o., 30 days, before treatment 100%
Method in brief: (§1)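 SHR rats dosed orally at 200 mg/kg day for 30 days against water vehicle. At study end, blood pressure taken non-invasively by tail cuff and apoA-I assessed as gene expression by RT-PCR.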

[3] = Lamellar-to-hexagonal (HII) transition temperature in DEPE model membranes by Differential Scanning Calorimetry; assay type: physicochemical; conditions: for Temperature of lamellar-to-hexagonal transition: DEPE membranes, DEPE:D-PUFA 10:1 (mol:mol); for Transition temperature (lamellar to HII): DEPE (4 mM), 200 μM compound, series A, control 64.5
Protocol: The transition temperature was determined by Differential Scanning Calorimetry. The proportion DEPE:D-PUFA was 10:1 (mol:mol) in all cases. Lamellar-to-hexagonal transition is an important parameter that reflects relevant signalling properties of cell membranes. […] When this occurs, certain peripheral membrane proteins (such as G proteins, protein kinase C or Ras protein) can more easily bind to the membrane, while others have a poor interaction (e.g., the Gα-protein), so changes in the HII transition temperature are important in regulating cellular functions related to health and human therapy (Escriba et al., 1995, Vogler et al., 2004; Escriba, 2006).
Control values correspond to model membranes in the absence of fatty acids. The reduction in HII transition temperature obtained by using the D-PUFA of the invention indicates an increased induction of membrane discontinuities, generating anchoring sites in the membrane for peripheral proteins and leads to better regulation of cell signalling and, therefore, greater effectiveness in the control of certain diseases.

[4] = Serum cholesterol, triglycerides and glucose in SHR rats (colorimetric); assay type: in vivo, rat; conditions: 200 mg/kg daily p.o., 28 days, untreated rats 100%
Method in brief: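 SHR rats dosed p.o. at 200 mg/kg daily for 28 days; serum cholesterol, triglycerides and glucose measured colorimetrically. Values given as percent of untreated control rats, set at 100%.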

P19 cells = assay: NMDA-induced neuronal death in P19 cells; assay type: cell-based; conditions: NMDA alone 100% death, control without NMDA 0%; negative values = proliferation
COX-2 = assay: Expression of COX-2 in LPS-stimulated monocytes in culture; assay type: cell-based, human; conditions: positive control with LPS 100%
From the text: FIG. 5A also presents a drawing showing the COX-2/COX-1 relationship as % of control (Y axis) for the following compounds (X-axis): OOA (2-hydroxy-oleic acid), OLA (182A1), OALA (183A1), OGLA (183A2), OARA (204A1), OEPA (205A1), ODHA (226A1). […] The reduction of this factor is directly related to the anti-inflammatory medication. The compounds are the same as in the left pane.
(§2) Cyclooxygenase (COX) is an enzyme that can bind to membranes, taking certain lipids from there and catalyze its conversion into molecules that can have inflammatory activity. The binding of this enzyme to membrane lipids is due in part to the membrane lipid structure. The increased activity of COX 1 and 2 isoforms has been associated with the etiopathology of a number of inflammatory diseases by […] arachidonic acid metabolism to produce pro-inflammatory lipid mediators. The D-PUFA compounds of the present invention produced a series of cellular signals that alter the metabolism of arachidonic acid and, as a result, they inhibit the activity and expression of COX in monocytes in culture (Table 14 and FIG. 5A). […] For this purpose, C57BL6/J mice were treated with the various derivatives (200 mg/kg, p.o.,) after inducing an inflammatory reaction in them by intraperitoneal injection of 20 μg of bacterial lipopolysaccharide (LPS).
Inhibition of COX-2 expression in monocytes. Percentages of inhibition (compared to the positive control in the presence of LPS, 100%) of COX-2 protein levels (expression) by the various fatty acid derivatives.

TNF-α = assay: Production of TNF-α in serum of LPS-injected C57BL6/J mice; assay type: in vivo; conditions: LPS 20 μg i.p. (100%), 200 mg/kg p.o.
From the text: as §2

[5] = tested on: Spontaneously Hypertensive Rats (SHR); assay: Blood pressure of SHR rats (cuff-tail method); assay type: in vivo, rat; conditions: 200 mg/kg day p.o., 30 days, before treatment 214 mmHg
Method in brief: as §1

Jurkat cells = assay: Human leukaemia (Jurkat cells); assay type: cell-based; conditions: 72 hours
Protocol: (§3) Overall, it may be seen that the series of compounds A and B are the best, so the effectiveness of these series against the development of leukaemia and liver cancer (Tables 9 and 10) was tested.

lung cancer cells A549 = assay: Growth of lung cancer cells A549 (IC50); assay type: cell-based, human; conditions: 72 hours of incubation
Method in brief: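 Cell counts taken with compound, mean of three independent experiments. Applies to A549 (RPMI 1640, 10% FBS, 37 °C, 5% CO2).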

[6] = tested on: brain cancer cell (glioma) U118; assay: Brain cancer (glioma) U118 cell growth; assay type: cell-based; conditions: 72 hours of incubation
Method in brief: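 Cell counts taken with compound, mean of three independent experiments. Applies to U118.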

α-synuclein = assay: Expression of α-synuclein in neuronal cultures (cells P19); assay type: cell-based; conditions: untreated cells 100%
HepG2 cells = assay: Liver cancer (HepG2 cells); assay type: cell-based; conditions: Homo sapiens, HepG2; 72 hours
Protocol: These charts show the antitumor efficacy of the compounds of this invention against the growth of breast cancer cells, brain (glioma), and lung cancer. […] The other experimental conditions are identical to those described in the preceding paragraph.
as §3

3T3 cells = assay: Percentage of total PUFAs in membranes of 3T3 cells treated with fatty acids (gas chromatography); assay type: cell-based; conditions: 100 μM, 48 hours, mean ± SEM of four measures, control 32.4 ± 2.1
From the text: To perform these experiments, membranes were extracted and total fatty acids were obtained by hydrolysis in basic medium. Methanolic bases of these fatty acids were quantified by gas chromatography. The data shown are averages of four independent measures of PUFA's mass divided by the total fatty acids and expressed as a percentage. It is also shown is standard error of the mean.
The control corresponds to a culture without the presence of added natural or synthetic fatty acids. Cells in their natural form present PUFAs in their membranes, but the presence in the medium of the D-PUFA molecules of the invention increases these levels of PUFAs in the cell membrane.

[7] = tested on: heterotrimeric Gi1 protein; assay: Binding of heterotrimeric Gi1 protein to model membranes (centrifugation, immunoblotting); conditions: phosphatidylcholine:phosphatidylethanolamine (6:4) 2 mM phospholipid, 0.1 μM D-PUFA; control 100 ± 5; in % (unit assumed)
From the text: The net result is a regulation of cell signalling leading to the reversal of various pathological processes, as shown later. […] The Control is a sample of model membranes in the absence of fatty acids.

SMILES | IC50 [1] | Levels of apoA-I [2] | Temperature of lamellar-to-hexagonal transition [3] | Cholesterol in serum (top number) [4] | Glucose in serum (bottom number) [4] | Triglycerides in serum (central number) [4] | Neuronal death (P19 cells) after treatment with NMDA (P19 cells) | COX-2 protein levels (expression), percentages of inhibition compared to positive control (COX-2) | Production of TNF-α in serum (TNF-α) | Blood pressure [5] | IC50 (Jurkat cells) | IC50 (lung cancer cells A549) | IC50 [6] | Expression of α-synuclein (α-synuclein) | IC50 ([1]; Homo sapiens, MDA-MB-231) | IC50 (HepG2 cells) | Transition temperature (lamellar to HII) [3] | Percentage of total PUFA (3T3 cells) | G protein binding [7] | IC50 (Jurkat cells; Homo sapiens, Jurkat) | other results
CCCCCC=CCC=CCC=CCC=CCCC(O)C(=O)[O-].[Na+] (stereo not drawn) [204B1] | 345 µM | 144% | 50.2 °C | 71% | 89% | 69% | −71% | 28% | 26% | 202 mm Hg | 104 µM | 413 µM | 396 µM | 36% | – | – | – | – | – | – | –
CCCCCC=CCC=CCCCCCCC(O)C(=O)O (stereo not drawn) [182A1, 2-hydroxy-9,12-octadecadienoic acid] | – | 146% | – | 78% | 84% | 91% | −60% | 24% | 64% | 204 mm Hg | – | – | 197 µM | 50% | 388 µM | 212 µM | 51.8 °C | 42.3 ± 3.1% | 312 ± 12 | 713 µM | IC50 (lung cancer cells A549; Homo sapiens, A549): 944 µM
CCCCCC=CCC=CCC=CCCCC(O)C(=O)[O-].[Na+] (stereo not drawn) [183B2] | 156 µM | 285% | 51 °C | 77% | 86% | 76% | −66% | 29% | 78% | 182 mm Hg | 184 µM | 197 µM | 377 µM | 38% | – | – | – | – | – | – | –
CCCCCC=CCC=CCC=CCCCC(O)C(=O)O (stereo not drawn) [183A2, 2-hydroxy-6,9,12-octadecatrienoic acid] | – | 311% | – | 79% | 82% | 78% | −70% | 23% | 71% | 189 mm Hg | – | – | 372 µM | 40% | 347 µM | 380 µM | 50.1 °C | 44.0 ± 2.6% | 17 ± 357 | 184 µM | IC50 (lung cancer cells A549; Homo sapiens, A549): 192 µM
CCCCCC=CCC=CCCCCCCC(O)C(=O)[O-].[Na+] (stereo not drawn) [182B1] | 379 µM | 178% | 52.1 °C | 89% | 87% | 72% | −62% | 39% | 79% | 201 mm Hg | 377 µM | 196 µM | 198 µM | 61% | – | – | – | – | – | – | –
CCC=CCC=CCC=CCCCCCCC(O)C(=O)O (stereo not drawn) [183A1, 2-hydroxy-9,12,15-octadecatrienoic acid] | – | 134% | – | 76% | 87% | 81% | −55% | 20% | 70% | 201 mm Hg | – | – | 397 µM | 45% | 380 µM | 380 µM | 51.6 °C | 42.8 ± 2.2% | 328 ± 9 | 198 µM | IC50 (lung cancer cells A549; Homo sapiens, A549): 200 µM
